In patent US20090280133A1, “PHARMACEUTICAL COMPOUNDS AS INHIBITORS OF CELL PROLIFERATION AND THE USE THEREOF” (Myriad Genetics, Incorporated, priority 2006, published 2009):

Key:
[1] = tested on: P388 murine leukemia cell line; test: Identification of cytotoxic agents: P388 cell viability (ATP-Lite); assay type: cell-based; details: Mus musculus; P388 cells, 72 hours, intracellular ATP (ATP-Lite), concentration required to inhibit growth by 50%
Protocol: A P388 murine leukemia cell line was obtained from NCI, Frederick, Md. P388 cells were cultured in RPMI-1640 supplemented with 10% fetal bovine serum, 2 mM Glutamax, 1 mM sodium pyruvate, 0.1 mM non-essential amino acids and 10 mM HEPES. Cells were grown at 37° C. in a humidified 5% CO2 atmosphere. Exponentially growing P388 cells were plated at 5,000 cells/well in a 96-well flat-bottomed microtiter plate (Corning, Costar #3595). […] Cellular viability was determined 72 hours later by measuring intracellular ATP with ATP-Lite assay system. The effect of compounds on cell viability was calculated by comparing the ATP levels of cells exposed to test compound with those of cells exposed to DMSO. A semi-log plot of relative ATP levels versus compound concentration was used to calculate the compound concentration required to inhibit growth by 50% (IC50). Data was analyzed by Prism software (GraphPad; San Diego, Calif.) by fitting it to a sigmoidal dose response curve.

[2] = tested on: P388/ADR cell lines (overexpress multidrug resistance pump MDR-1); test: Multidrug resistant cell assay: P388/ADR cell viability (ATP-lite); assay type: cell-based; details: Mus musculus, P388/ADR cells overexpressing MDR-1 (Pgp-1), 72 hours
Source text: Cytotoxicity of compounds in multidrug resistant cells can be determined by administering compounds to cell lines that overexpress the multidrug resistance pump MDR-1 and determining the viability of the cell lines. P388/ADR cell lines are known to overexpress the multidrug resistance pump MDR-1 (also known as P-glycoprotein-1; Pgp-1).
P388/ADR cell lines are obtained from American Type Culture Collection (Manassas, Va.) and maintained in RPMI-1640 media supplemented with 10% FCS, 10 units/ml penicillin and streptomycin, 2 mM Glutamax and 1 mM sodium pyruvate (Invitrogen Corporation, Carlsbad, Calif.). For compound testing, cells are plated in 96 well dishes at a concentration of 1.5×10^4 cells/well. Cells are allowed to adhere to the plate overnight and then incubated with compounds at final concentrations ranging from 0.13 nM to 10 uM for 72 hours. Cell viability is then assessed using the ATP-lite reagent (Perkin Elmer, Foster City, Calif.). Plates are read on a Wallac Topcount luminescence reader (Perkin Elmer, Foster City, Calif.) and the results graphed in Prism software (Graphpad Software, Inc., San Diego, Calif.). Non-linear regression with variable slope analysis is performed to obtain IC50 concentration values.

IC50 [2] [nM]	SMILES	IC50 [1] [nM]
480	COc1ccc(N(C)c2ccnc(Cl)n2)cc1 [Example 1, (2-Chloro-pyrimidin-4-yl)-(4-methoxyphenyl)-methyl amine]	280
	COC(=O)c1cc(N(C)c2ccc(OC)cc2)nc(Cl)n1 [Example 2, Methyl 2-chloro-6-[(4-methoxyphenyl)(methyl)amino]pyrimidine-4-carboxylate]	9000
78	CCOC(=O)c1cnc(SC)nc1N(C)c1ccc(OC)cc1 [Example 3, Ethyl 4-[(4-methoxyphenyl)(methyl)amino]-2-(methylthio)pyrimidine-5-carboxylate]	54
1100	COc1ccc(N(C)c2cc(C)nc(N(C)C)n2)cc1 [Example 4, N^4-(4-Methoxyphenyl)-N^2,N^2,N^4,6-tetramethylpyrimidine-2,4-diamine]	1060
6200	COc1ccc(N(C)c2ccnc(N(C)C)n2)cc1 [Example 5, N^4-(4-Methoxyphenyl)-N^2,N^2,N^4-trimethylpyrimidine-2,4-diamine]	7900
	COc1ccc(N(C)c2ccnc(C#N)n2)cc1 [Example 6, 4-[(4-Methoxyphenyl)(methyl)amino]pyrimidine-2-carbonitrile]	6800
3900	COc1ccc(N(C)c2cc(C)nc(C#N)n2)cc1 [Example 7, 4-[(4-Methoxyphenyl)(methyl)amino]-6-methylpyrimidine-2-carbonitrile]	2500
2400	COc1ccc(N(C)c2cc(Cl)nc(N)n2)cc1 [Example 8, 6-Chloro-N^4-(4-methoxyphenyl)-N^4-methylpyrimidine-2,4-diamine]	1900
3100	COc1ccc(N(C)c2ccnc(CN)n2)cc1 [Example 9, 2-(Aminomethyl)-N-(4-methoxyphenyl)-N-methylpyrimidin-4-amine]	1900
800	COc1ccc(N(C)c2cc(-c3ccccc3)nc(C)n2)cc1 [Example 10]	1600
400	COc1ccc(N(C)c2cc(C)nc(C)n2)cc1 [Example 11, (2,6-dimethyl-pyrimidin-4-yl)-(4-methoxyphenyl)-methylamine]	310
62	COc1ccc(N(C)c2nc(C)ncc2NS(=O)(=O)c2ccc(OC)cc2)cc1 [Example 12, 4-Methoxy-N-{4-[(4-methoxyphenyl)-methylamino]-2-methyl-pyrimidin-5-yl)-benzenesulfonamide]	57
7400	COc1ccc(S(=O)(=O)Nc2cnc(C)nc2N(C)c2ccc(O)cc2)cc1 [Example 13, N-{4-[(4-hydroxyphenyl)-methylamino]-2-methyl-pyrimidin-5-yl)-4-methyoxy-benzenesulfonamide]	1400
